In EP0738727B1, “1,4-BENZOXAZINE-2-ACETIC ACID COMPOUND, PROCESS FOR PRODUCING THE SAME, AND USE THEREOF” (Senju Pharmaceutical Co., Ltd., priority 1994, dated 1995):
pIC50: −log10 of the molar value. Marks after values point to notes of the source that are not given here.

Tests used:
[1] = test system: sorbitol accumulation in tissues; assay: Inhibitory action on sorbitol accumulation in tissues of rats with experimental (streptozotocin) diabetes; type: in vivo, Sprague-Dawley rats; conditions: measured 3 hours after final administration, control taken as 100%; for Sorbitol accumulation (%) nerve: sciatic nerve
Experimental: Sprague-Dawley rats (male, 6 weeks old, 5-6 per group) were fasted for 18 hours and injected with streptozotocin (SIGMA, 60 mg/kg) via the tail vein under etherization to prepare rats with diabetes.
The various compounds were orally administered at 4, 8 and 24 hours after the injection of streptozotocin, at 10 mg/kg or 30 mg/kg as a 0.5% carboxymethylcellulose suspension. During the administrations, the rats were raised under free access to feed and water, and the sorbitol content of the tissues (erythrocytes, sciatic nerve, lens) was determined 3 hours after the final administration, according to the enzyme method of H.Y. Bergmeyer et al. [Methods of Enzymatic Analysis, vol. 3, 1323-1330 (1974)] with the use of SDH (sorbitol dehydrogenase) and NAD (β-nicotinamide adenine dinucleotide). The results (sorbitol accumulation) are expressed in percent (%) relative to the value of a control group administered with 0.5% carboxymethylcellulose solution (solvent) instead of the drug, which was taken as 100%.

aldose reductase = molecular target: T1, aldose reductase (Sus scrofa, UniProt P80276); assay: Aldose reductase inhibitory action (method of S. Hayman et al., absorbance change at 340 nm); type: biochemical; conditions: swine lens enzyme, 3 mM dl-glyceraldehyde, 0.1 mM NADPH, pH 6.2, 25°C
T1 construct: swine lenses freeze-stored at -80°C were homogenized with distilled water and centrifuged at 10,000 G for 15 minutes; from tissue; host or cells: swine lens
Experimental: An aldose reductase enzyme standard product was prepared from swine lens according to the method of S. Hayman et al. [Journal of Biological Chemistry, 240, 877-882 (1965)]. That is, swine lenses freeze-stored at -80°C were homogenized with distilled water and centrifuged at 10,000 G for 15 minutes. The supernatant was prepared into a 40% ammonium sulfate solution and subjected to centrifugation at 10,000 G for 10 minutes. The supernatant obtained was dialyzed overnight against a 0.05 M sodium chloride solution to give a dialyzed solution, which was used as an enzyme standard product.
The activity of aldose reductase was determined by the above-mentioned method of S. Hayman et al. That is, the above-mentioned enzyme solution (25 µl) and a drug solution (25 µl) dissolved in 1% DMSO at various concentrations were added to a 40 mM phosphate buffer (200 µl, pH 6.2) containing, at final concentrations, 0.4 M lithium sulfate, 0.1 mM NADPH (reduced type nicotinamide adenine dinucleotide phosphate) and 3 mM dl-glyceraldehyde as a substrate. The mixture was allowed to react at 25°C for 2 minutes and the changes in absorbance at 340 nm were determined with COBAS FARA II (manufactured by Roche). The changes in absorbance when 1% DMSO was added instead of the drug solution was taken as 100%, based on which 50% inhibition concentration (IC50) was calculated and shown in Table 1. […] The test drug number indicates the example number to be mentioned later. IC50 (M) means the concentration of the drug at which the aldose reductase activity is inhibited by 50% Table 1

ICR mice = assay: Acute toxicity after a single oral dose in mice; type: in vivo; conditions: 300 mg/kg orally, male ICR mice, observation for 14 days
Experimental: Normal ICR mice (male, 7 weeks old, 5 per group) were fasted for 18 hours and the compound (300 mg/kg) of Example 33 was orally administered as a 0.5% carboxymethylcellulose suspension. To the control group, a 0.5% carboxymethylcellulose solution alone was orally administered, and observation was continued for 14 days thereafter, during which period the mice were allowed to take feed and water freely.

[2] = 30 mg/kg orally at 4, 8 and 24 hours after streptozotocin
[3] = 10 mg/kg orally at 4, 8 and 24 hours after streptozotocin

| Structure (SMILES) | pIC50 (aldose reductase) | Sorbitol accumulation (%) erythrocytes [1, 3] | Sorbitol accumulation (%) lens [1, 3] | Sorbitol accumulation (%) nerve [1, 3] | other results |
| --- | --- | --- | --- | --- | --- |
| CC(C)c1cccc2c1OC(C(C)C)C(=S)N2CC(=O)O (stereo not drawn) [Compound A, 3,4-dihydro-2,8-diisopropyl-3-thioxo-2H-1,4-benzoxazine-4-acetic acid, reference compound] | – | – | – | – | Sorbitol accumulation (%) erythrocytes [1, 2]: 53.7* %; Sorbitol accumulation (%) lens [1, 2]: 87.3%; Sorbitol accumulation (%) nerve [1, 2]: 54.9** % |
| O=C(O)CC1Oc2ccccc2N(Cc2nc3cc(Cl)ccc3s2)C1=O (stereo not drawn) [Example 25, 2-[4-(5-chlorobenzothiazol-2-yl)methyl-3,4-dihydro-3-oxo-2H-1,4-benzoxazin-2-yl]acetic acid] | 8.07 | – | – | – | – |
| O=C(O)CC1Oc2ccc(F)cc2N(Cc2nc3c(F)c(F)ccc3s2)C1=O (stereo not drawn) [Example 26, 2-[6-fluoro-4-(4,5-difluorobenzothiazol-2-yl)methyl-3,4-dihydro-3-oxo-2H-1,4-benzoxazin-2-yl]acetic acid] | 8.02 | – | – | – | – |
| O=C(O)CC1Oc2ccc(F)cc2N(Cc2nc3cc(F)cc(F)c3s2)C1=O (stereo not drawn) [Example 27, 2-[6-fluoro-4-(5,7-difluorobenzothiazol-2-yl)methyl-3,4-dihydro-3-oxo-2H-1,4-benzoxazin-2-yl]acetic acid] | 8.00 | – | – | – | – |
| O=C(O)CC1Oc2ccc(F)cc2N(Cc2nc3c(Cl)c(Cl)ccc3s2)C1=O (stereo not drawn) [Example 28, 2-[4-(4,5-dichlorobenzothiazol-2-yl)methyl-6-fluoro-3,4-dihydro-3-oxo-2H-1,4-benzoxazin-2-yl]acetic acid] | – | 16.3** % | 89.3% | 56.0** % | – |
| O=C(O)CC1Oc2ccccc2N(Cc2nc3c(F)c(F)cc(F)c3s2)C1=O (stereo not drawn) [Example 30, 2-[4-(4,5,7-trifluorobenzothiazol-2-yl)methyl-3,4-dihydro-3-oxo-2H-1,4-benzoxazin-2-yl]acetic acid] | – | 22.2** % | 45.2** % | 1.0** % | – |
| O=C(O)CC1Oc2ccccc2N(Cc2nc3cc(F)cc(F)c3s2)C1=O (stereo not drawn) [Example 32, 2-[4-(5,7-difluorobenzothiazol-2-yl)methyl-3,4-dihydro-3-oxo-2H-1,4-benzoxazin-2-yl]acetic acid] | – | 27.2** % | 39.1** % | 11.4** % | – |
| O=C(O)CC1Oc2ccccc2N(Cc2nc3ccc(F)c(F)c3s2)C1=O (stereo not drawn) [Example 33, 2-[4-(6,7-difluorobenzothiazol-2-yl)methyl-3,4-dihydro-3-oxo-2H-1,4-benzoxazin-2-yl]acetic acid] | – | – | – | – | death (ICR mice): no case of death; weights (ICR mice; compared with control group): showed transition in the same manner as in the control group |
| O=C(O)CC1Oc2ccccc2N(Cc2nc3c(Cl)c(Cl)ccc3s2)C1=O (stereo not drawn) [Example 34, 2-[4-(4,5-dichlorobenzothiazol-2-yl)methyl-3,4-dihydro-3-oxo-2H-1,4-benzoxazin-2-yl]acetic acid] | 8.00 | – | – | – | – |
| Cc1ccc2c(c1)N(Cc1nc3c(F)c(F)cc(F)c3s1)C(=O)C(CC(=O)O)O2 (stereo not drawn) [Example 35, 2-[4-(4,5,7-trifluorobenzothiazol-2-yl)methyl-6-methyl-3,4-dihydro-3-oxo-2H-1,4-benzoxazin-2-yl] acetic acid] | 8.04 | – | – | – | – |
| Cc1ccc2c(c1)N(Cc1nc3c(F)c(F)ccc3s1)C(=O)C(CC(=O)O)O2 (stereo not drawn) [Example 36, 2-[4-(4,5-difluorobenzothiazol-2-yl)methyl-6-methyl-3,4-dihydro-3-oxo-2H-1,4-benzoxazin-2-yl]acetic acid] | 8.04 | 17.3** % | 60.7* % | 23.5** % | – |
| O=C(O)CC1Oc2ccc(Cl)cc2N(Cc2nc3c(F)c(F)cc(F)c3s2)C1=O (stereo not drawn) [Example 38, 2-[6-chloro-4-(4,5,7-trifluorobenzothiazol-2-yl)methyl-3,4-dihydro-3-oxo-2H-1,4-benzoxazin-2-yl]acetic acid] | – | 24.6** % | 44.1** % | 0.0** % | – |
| O=C(O)CC1Oc2ccc(Cl)cc2N(Cc2nc3c(F)c(F)ccc3s2)C1=O (stereo not drawn) [Example 39, 2-[6-chloro-4-(4,5-difluorobenzothiazol-2-yl)methyl-3,4-dihydro-3-oxo-2H-1,4-benzoxazin-2-yl]acetic acid] | 8.00 | – | – | – | – |
| Cc1ccc2c(c1)OC(CC(=O)O)C(=O)N2Cc1nc2cc(F)cc(F)c2s1 (stereo not drawn) [Example 43, 2-[4-(5,7-difluorobenzothiazol-2-yl)methyl-7-methyl-3,4-dihydro-3-oxo-2H-1,4-benzoxazin-2-yl]acetic acid] | – | 34.9** % | 100.9% | 60.6** % | – |
| O=C(O)CC1Oc2cc(F)ccc2N(Cc2nc3c(F)c(F)cc(F)c3s2)C1=O (stereo not drawn) [Example 44, 2-[7-fluoro-4-(4,5,7-trifluorobenzothiazol-2-yl)methyl-3,4-dihydro-3-oxo-2H-1,4-benzoxazin-2-yl]acetic acid] | – | 25.9** % | 52.0** % | 4.7 ** % | – |
| O=C(O)CC1Oc2cc(F)ccc2N(Cc2nc3c(F)c(F)ccc3s2)C1=O (stereo not drawn) [Example 45, 2-[7-fluoro-4-(4,5-difluorobenzothiazol-2-yl)methyl-3,4-dihydro-3-oxo-2H-1,4-benzoxazin-2-yl]acetic acid] | – | 32.4** % | 71.8* % | 56.8** % | – |
